In US7354593B2, “Coccidial vaccine and methods of making and using same” (Merial Limited, priority 2002, dated 2008):
Read-outs that look alike come from different tables or passages of the source.

Columns and labels:
Salmonella = assay: Killing of Salmonella by oocyst processing agents
[1] = tested on: E. acervulina, E. mitis, E. tenella, E. maxima; assay: Challenge phase: polyvalent oral challenge with virulent Eimeria, lesion scores and weight gain six days after challenge; assay type: in vivo, Gallus domesticus (chicken)
From the text: Six days following challenge, the vaccinates and controls from each of the Groups in Table 4 were sacrificed, weighed, and the intestines and ceca were examined and scored for lesions. Scoring was in accordance with the Johnson and Reid cocciodial scoring system, as described in Experimental Parisitology, Vol. 28, p 30-36, 1970, the disclosure of which is incorporated by reference in its entirety, as shown in Table 5.
On Day 28, the birds to be challenged were moved to wire cages. Salinomycin was discontinued in Group 3 birds to be challenged. All birds and feed we weighed. Fresh fecal samples were collected from the litter from each group in the large pens, 20 samples per pen. Oocysts by quantified by species.
On Day 29, birds in the cages were challenged using the number of oocysts described in Table 7.
On Day 35, the challenge birds were terminated, the lesions were scored, and weight gains were taken.
Challenge. At Day 28, 3 reps of 10 birds from each pen (total of 60 per treatment) were weighed and moved to the battery cages for challenge with field strains of Eimeria (corresponding to the species used in the vaccine). All birds were given non-medicated feed in the cages. On Day 29, birds of Groups 1-4 were challenged and then terminated on Day 35. Lesion scores and weights were recorded.
(§1) Criteria for Measurement. The primary variables for the floor pen phase were live weights at 28 and 49 days and feed conversion at 49 days. For the challenge phase, primary variables were weight gain six days after challenge, and lesion scores of the upper, mid and cecal gut sections, also at six days after challenge.

Clostridium sordelli = assay type: in vivo, Gallus domesticus (chicken); settings: necrotic enteritis mortality
Method: (§2) Observations. Birds were weighed by pen at 0 and 28 days and by pen and sex at 49 days. Dead birds were collected twice daily and necropsy performed to determine cause of death.
Concurrent Medications and Management of Adverse Events. The Coccivac vaccinated birds became sick 14 days into the trial. […] The responsible agent was identified as Clostridium sordelli. All birds in the trial were administered Penicillin G to decrease contamination, and the affects thereof, between pens and to eliminate any difference in treatments among the groups that could skew the coccidiosis results.
It is important to note that the Coccivac vaccinated birds became infected with Clostridium sordelli. Clostridial disease has been linked to infection with coccidiosis in the field. Even though the infection did spread to the other treatments, the Coccivac vaccinated birds were the most affected showing 11.77% mortality.

[2] = Floor pen phase: live weight, feed conversion and total mortality during 7-week grow-out; assay type: in vivo, Gallus domesticus (chicken)
From the text: The timeline was as follows. On Day 0, birds were weighed by pen. The birds in Groups 1 and 2 were vaccinated as described in Table 9, with 1300 birds per vaccine regime, divided between 2 pens, one in each half of the house. The birds in Group 3 were started on Salinomycin, 60 g/ton, divided as described for Groups 1 and 2. The pens were stocked. Extra hatchmates were retained in wire cages as unvaccinated chicks.
On Day 21, the feed from starter to grower was changed for all birds. Salinomycin was continued in Group 3.
On Day 42, all groups were changed to unmedicated finisher feed and the feed back was weighed.
On Day 49, all birds and feed were weighed and the trial was terminated.
Vaccination/Medication. Three treatments of birds identified as Groups 1-3 in Table 9, were replicated in half houses, three pens per house, 650 birds per pen, for a total of 1300 birds per treatment. Birds in […] were vaccinated as described in Table 9. An additional treatment group (4) was maintained separately in clean cages as unvaccinated, untreated controls, for use in the challenge test only.
Treatment Groups 1, 2, and 4 were given non-medicated feed. Treatment Group 3 was given Salinomycin (60 g/ton) beginning on Day 1 through Day 42. The birds in Group 3 to be challenged were given non-medicated feed after the move to the challenge cages. Starter feed was given until 21 days, grower until 42 days and finisher until 49 days. The feed issued was recorded, and any remaining unconsumed feed was weighed back at the time of feed changes and at termination.
as §2, §1

Mycoplasma = assay: Killing of Mycoplasma by oocyst processing agent

SMILES: [K+].[K+].[O]=[Cr](=[O])([O-])[O][Cr](=[O])(=[O])[O-] [potassium dichromate]
- killing of Salmonella (Salmonella): effectively killed

SMILES: CC[C@@H](C(=O)[C@@H](C)[C@@H](O)[C@H](C)[C@@H]1O[C@@H]([C@@H](CC)C(=O)O)CC[C@@H]1C)[C@H]1O[C@]2(C=C[C@@H](O)[C@]3(CC[C@@](C)([C@H]4CC[C@](O)(CC)[C@H](C)O4)O3)O2)[C@H](C)C[C@@H]1C [SALINOMYCIN, Salinomycin]
- Initial Wt. ([1]; Day 28, before challenge, 60 birds challenged per treatment): 1435.47ab
- Final Wt. ([1]; Day 35, six days after challenge): 1488.97b
- % Mortality Due to Coccidiosis ([1]; after challenge): 0%
- Ceca Lesion Score ([1]; ceca, six days after challenge, Johnson and Reid score 0 to +4): 3.25a
- Middle Lesion Score ([1]; mid gut, six days after challenge, Johnson and Reid score 0 to +4): 2.90b
- 6 Day Wt. Gain ([1]; six days after challenge): 53.50 days
- ATLS (average total lesion score) ([1]; six days after challenge): 2.88a
- TLS (total lesion score) ([1]; six days after challenge): 8.65a
- Upper Lesion Score ([1]; upper intestine, six days after challenge, Johnson and Reid score 0 to +4): 2.50a
- % Mortality NE (Clostridium sordelli; 28 Day Summary): 0.46%
- % Mortality NE (Clostridium sordelli; 49 Day Summary): 0.53%
- % All Mortality ([2]; 28 Day Summary): 3.76%
- Feed Conversion ([2]; 28 Day Summary): 1.383
- Avg Live Wt ([2]; 28 Day Summary, commercial birds, floor pens): 1.45
- % Mortality Total ([2]; 49 Day Summary): 5.38%
- Avg Live Female Wt ([2]; 49 Day Summary): 2.63
- Avg Live Male Wt ([2]; 49 Day Summary): 3.17
- Avg Total Live Wt ([2]; 49 Day Summary): 2.90
- Feed Conversion ([2]; 49 Day Summary): 1.86

SMILES: OCl [sodium hypochlorite]
- killing of Mycoplasma (Mycoplasma): effectively killed
- killing of Salmonella (Salmonella): effectively killed
